Assay results published in patent publication US4035503A, “Xanthene and thioxanthene derivatives, compositions thereof and a method of preparation thereof” (Kefalas A/S, priority 1973, dated 1977).
Like-named read-outs stand apart in the source and are kept apart here.

Tested on: methylphenidate
Experiment: Methylphenidate antagonism in mice (antagonism of biting of corrugated paper)
Type: in vivo, NMRI male mice
Settings: for ED50: Mus musculus; for ED50 / Methylphenidate antagonism, duration of peak effect: mice; for Methylphenidate antagonism, comparison in words (peak effect and duration): compared within the table, with known substances
From the text: The test may briefly be described as follows:
As animals were used NMRI male mice weighting 18-25 grams.
5 × 2 mice are used for each dose level.
[…] At each time interval separate groups of mice were used. After administration of methylphenidate the mice are placed in the observation cages, 2 in each cage, where they remain for one hour. The cages are placed on corrugated paper, the corrugations facing upwards. It is examined whether or not the mice have been biting the corrugated paper. […] At each time interval separate groups of mice were used. The peak effect was determined for the test substances and also for a number of known neuroleptics.
The test was carried out on a number of the novel compounds of Formula I and on a number of closely related thiaxanthene derivatives.

[1] = ip, i.p. test substance, 24 h after administration, read-out: Methylphenidate antagonism, ED50 24 h i.p.
[2] = route p.c. [sic], at peak effect, read-out: Methylphenidate antagonism, Peak effect ED50 p.c.

Structure (SMILES) | ED50 [1] | ED50 [2] | Methylphenidate antagonism, comparison in words (peak effect and duration) | Methylphenidate antagonism, duration of peak effect (i.p. test substance)
CN(C)CC=CC1c2ccccc2Sc2ccc(Cl)cc21 (stereo not drawn) [Lu 8-030, 2-Chloro-9-(3-dimethylamino-1-propenyl)-thioxanthene] | > 20 mg/kg | 5.5 mg/kg | a more prolonged activity while the peak effect remains at the same level or is somewhat higher | 3 h
OCCN1CCN(CC=CC2c3ccccc3Sc3ccc(C(F)(F)F)cc32)CC1 (stereo not drawn) [Lu 9-212, 2-Trifluoromethyl-9-(3-(4-(2-hydroxyethyl)-piperazin-1-yl)-1propenyl) thioxanthene] | > 10 mg/kg | 0.13 mg/kg | a more prolonged activity while the peak effect remains at the same level or is somewhat higher | 10 h
OCCN1CCN(CC=CC2c3ccccc3Sc3ccc(Cl)cc32)CC1 (stereo not drawn) [Lu 9-244, 2-Chloro-9-(3-(4-(2-hydroxyethyl)piperazin-1-yl)-1-propenyl) thioxanthene] | 14.1 mg/kg | 0.22 mg/kg | a more prolonged activity while the peak effect remains at the same level or is somewhat higher | 10 h
OCCN1CCN(CC=CC2c3ccc(F)cc3Sc3ccc(C(F)(F)F)cc32)CC1 (stereo not drawn) [Lu 10-153, 2-Trifluoromethyl-6-fluoro-9-(3-(4-(2-hydroxyethyl)piperazine1-yl)-1-propenyl)thioxanthene] | 0.06 mg/kg | 0.03 mg/kg | unique in combining at the same time the most potent peak effect but also the long lasting effect | 30 h
CN(C)CC=CC1c2ccc(F)cc2Sc2ccc(C(F)(F)F)cc21 (stereo not drawn) [Lu 11-186, 2-Trifluoromethyl-6-fluoro-9-(3-dimethylamino-1-propenyl)-thioxanthene] |  | 0.08 mg/kg |  | 8 h
OCCC1CCN(CC=CC2c3ccc(F)cc3Oc3ccc(C(F)(F)F)cc32)CC1 (stereo not drawn) [Lu 11-200, 2-Trifluoromethyl-6-fluoro-9-(3-(4-(2-hydroxyethyl)piperidin-1-yl)-1-propenyl) xanthene] | 1.6 mg/kg | 0.2 mg/kg |  | 17 h
OCCC1CCN(CC=CC2c3ccc(F)cc3Sc3ccc(C(F)(F)F)cc32)CC1 (stereo not drawn) [Lu 12-001] | 0.1 mg/kg | 0.2 mg/kg |  | 72 h
CN(C)CC/C=C1/c2ccccc2Sc2ccc(Cl)cc21 [α-chlorprothixen, trans-9-(3-dimethylaminopropylidene)-2-chloro-thioxanthene, reference compound] | > 20 mg/kg | 2.6 mg/kg |  | 2 h
OCCN1CCN(CC/C=C2/c3ccccc3Sc3ccc(Cl)cc32)CC1 [α-clopenthixol, 9-[3-(4-(2-hydroxyethyl)piperazinyl-(1))-propylidene]-2-chloro-thioxanthene, reference compound] | > 20 mg/kg | 1.3 mg/kg |  | 6 h
OCCN1CCN(CC/C=C2/c3ccccc3Sc3ccc(C(F)(F)F)cc32)CC1 [α-flupenthixol, 9-[3-(4-(2-hydroxyethyl)piperazinyl-(1))-propylidene]-2-trifluoromethyl-thioxanthene, reference compound] | > 20 mg/kg | 0.22 mg/kg |  | 6 h
